Test results reported in EP4471048A1, “PEPTIDE INHIBITORS OF INTERLEUKIN-23 RECEPTOR” (Zealand Pharma A/S, priority 2023, dated 2024).
Like-named read-outs stand apart in the source and are kept apart here. *1 amine or outer side, *2 acyl side, *3 side chain or, on linkers, in order; H or OH if unused. Where a SMILES comes first, the peptide text is derived from it. Bridges are numbered along the chain shown (N, C = ends). [ ]: non-standard residue; d: D form. The star is where a group is joined. X7 = O=C(C[C@H](CCCN[*:3])N[*:2])[*:1]; 2Nal = N[C@@H](Cc1ccc2ccccc2c1)C(=O)O; AEF = NCCOc1ccc(C[C@H](N)C(=O)O)cc1; X1 = O=C(Cc1ccc(CN[*:1])cc1)[*:2]; 3Pal = N[C@@H](Cc1cccnc1)C(=O)O; Aad = N[C@@H](CCCC(=O)O)C(=O)O; αMeL = CC(C)C[C@](C)(N)C(=O)O; dOrn = NCCC[C@@H](N)C(=O)O; Pyrrolidide = C1CCN(*)C1; Dab = NCC[C@H](N)C(=O)O; X6 = O=C(CN[*:2])[*:1]

How the values were obtained:
human IL-23R = biological target: T1, human IL-23R (Homo sapiens, UniProt Q5VWK5); assay: biochemical; conditions: for Emax: read-out: % displacement (hIL-23R NIuc)
T1 sequence (Q5VWK5 22-629): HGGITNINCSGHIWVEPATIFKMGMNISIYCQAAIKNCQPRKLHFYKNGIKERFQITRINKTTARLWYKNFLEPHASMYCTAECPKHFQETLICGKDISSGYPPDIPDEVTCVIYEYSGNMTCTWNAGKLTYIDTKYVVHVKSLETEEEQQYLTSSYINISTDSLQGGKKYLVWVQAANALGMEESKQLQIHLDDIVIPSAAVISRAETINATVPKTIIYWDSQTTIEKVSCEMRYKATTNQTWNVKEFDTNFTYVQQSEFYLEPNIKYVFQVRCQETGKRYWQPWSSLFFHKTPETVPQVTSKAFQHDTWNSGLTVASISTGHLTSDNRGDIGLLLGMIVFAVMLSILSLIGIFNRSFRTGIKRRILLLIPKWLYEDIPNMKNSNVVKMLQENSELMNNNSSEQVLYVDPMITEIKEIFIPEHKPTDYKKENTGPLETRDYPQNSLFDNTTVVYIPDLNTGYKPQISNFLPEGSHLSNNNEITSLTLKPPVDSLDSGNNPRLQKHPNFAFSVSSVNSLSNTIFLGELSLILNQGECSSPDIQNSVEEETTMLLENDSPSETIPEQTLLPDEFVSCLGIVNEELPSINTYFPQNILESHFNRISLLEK
In short: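 BRET displacement of a TAMRA-labelled reference compound from N-terminal Nanoluc-IL-23R fusion protein in membranes from stably transfected HEK293 cells. Incubation 2 h at room temperature, then Nanoluc substrate was added and the TAMRA/Nanoluc ratio read. IC50 and maximal displacement came from 4-parameter logistic fits.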

[1] = biological target: IL-23 mediated signalling (Homo sapiens, UniProt Q5VWK5); assay: Functional inhibition of IL-23 mediated STAT3 signalling (phospho-STAT3 MSD) in DB cells; type: cell-based; conditions: DB cells, hIL-23 at EC80; for Emax: read-out: hIL-23 (pSTAT3) antagonist % inhibition
Excerpt: Upon binding of IL-23, the IL-23R forms a heterodimer signalling complex together with IL-12R β1, which through the JAK2/STAT3 pathway promotes phosphorylation of STAT3 to form phospho-STAT3.
For compounds tested in this assay, the response was normalized relative to control values to calculate the IC50 and maximal inhibitory response from a concentration response curve of the compound in presence of a fixed concentration of human IL-23.
The assay procedure was as follows. […] Following preincubation of the DB cells with inhibitor for 15 min in a cell incubator (37 °C, 5% CO2), 20 µL of the prepared 3X the EC80 of hIL-23 solution was added to each well and incubated for 90 min in a cell incubator (37 °C, 5% CO2). For some wells buffer only or IL-23 only corresponding to the EC80 was added to obtain readouts needed for normalization. To terminate the assay, the plate was spun at 1000 G for 5 min to pellet cells, the supernatant removed using an 8-channel manual pipette, and then added 50 µL/well Complete Lysis Buffer from the MSD STAT3 kit (Cat# K150SVD, Mesoscale) to the cell pellet. To completely lyse cells to release phospho-STAT3 for detection, the plate was shaken for 10 min at room temperature (500 rpm) sealed with aluminium foil and placed at -80 °C for a minimum of 15 min. Detection of the phospho-STAT3 level in the cell lysate from the individual wells was determined using the MSD STAT3 kit (Cat# K150SVD, Mesoscale) and read on a Meso QuickPlex SQ 120 plate reader (Mesoscale).
For data analysis raw data counts from the Meso QuickPlex SQ 120 plate reader were normalized relative to the response by the EC80 of h1L-23 alone (no compound added) and the buffer level. Compound potency (IC50) and maximal inhibitory response (% inhibition) were estimated by computer-aided curve fitting using a 4-parameter logistic (4PL) nonlinear model. […] Table 3-2: hIL-23 (pSTAT3) antagonist IC50 and % inhibition

[2] = Table 3-2, maximal inhibitory response
[3] = Table 3-2, read-out: hIL-23 (pSTAT3) antagonist IC50

Structure (SMILES)	% displacement (hIL-23R NIuc) (human IL-23R) [%]	IC50 (human IL-23R) [nM]	Emax [1, 2] [%]	Ki (human IL-23R) [nM]	IC50 [1, 3] [nM]	Emax (human IL-23R) [%]	IC50 ([1]; SAR tables 2-1 to 2-7, read-out: IC50 (pSTAT3)) [nM]	% displacement (hIL-23R NIuc) (human IL-23R; Table 3-1, maximal displacement of TAMRA-labelled peptide) [%]	hIL-23 (pSTAT3) antagonist % inhibition [1, 2] [%]
CC(C)C[C@]1(C)NC(=O)[C@H](Cc2ccc3ccccc3c2)NC(=O)[C@H](Cc2ccc(OCCN)cc2)NC(=O)[C@@H]2CCNC(=O)CC[C@H](NC(=O)[C@H](CO)NC(=O)Cc3ccc(cc3)CNC(=O)CC[C@@H](C(=O)N[C@@H](CCN)C(N)=O)NC1=O)C(=O)N[C@@H](Cc1c[nH]c3ccccc13)C(=O)N[C@@H](CCC(N)=O)C(=O)N2 [Ref 125, [4-Aminomethyl-phenylacetyl](1c)*SE(2c)WQ[Dab](2c)[Y(2-aminoethoxy)][2-Nal][2-Me-Leu]E(1c)[Dab]-[NH2], reference compound]	101	0.73	98	0.599	21				
CNC(=O)[C@H](Cc1cccnc1)NC(=O)[C@H](CCN)NC(=O)[C@@H]1CCC(=O)NCC(=O)NCCCC[C@@H]2NC(=O)CC[C@H](NC(=O)[C@H](CCC(N)=O)NC(=O)[C@H](Cc3c[nH]c4ccccc34)NC2=O)C(=O)N[C@@H](Cc2ccc(OCCN)cc2)C(=O)N[C@@H](Cc2ccc3ccccc3c2)C(=O)N[C@@](C)(CC(C)C)C(=O)N1 [Compound 46, [K(G)](1c)(6c)^†WQE(6c)[Y(2-aminoethoxy)][2-Nal][2-Me-Leu]E(1c)[Dab][3-(3-Pyridyl)-Ala]-[NHMe]] (KWQE[AEF][2Nal][αMeL]E[Dab][3Pal]-NHMe; linker 1-8 via X6; lactam N-4)		7.3	102			104			
CC(=O)N[C@H]1CCCCNC(=O)CC[C@@H](C(=O)N[C@@H](CCCNC(=N)N)C(N)=O)NC(=O)[C@H](CC(C)C)NC(=O)[C@H](Cc2ccc3ccccc3c2)NC(=O)[C@H](Cc2c[nH]c3ccccc23)NC(=O)[C@@H]2CSCC(=O)CSC[C@H](NC(=O)[C@H](CO)NC1=O)C(=O)N[C@@H](Cc1c[nH]c3ccccc13)C(=O)N[C@@H](CCC(N)=O)C(=O)N2 [Ref 18, [Ac]-K(1c)SC(2a)WQC(2a)W[2-Nal]LE(1c)R-[NH2], reference compound] (HELM PEPTIDE1{[ac].K.S.C.W.Q.C.W.[O=C([C@H](Cc1ccc2ccccc2c1)N[*:1])[*:2]].L.E.R.[am]}|CHEM1{[O=C(C[*:1])C[*:2]]}$PEPTIDE1,PEPTIDE1,2:R3-11:R3|PEPTIDE1,CHEM1,4:R3-1:R1|PEPTIDE1,CHEM1,7:R3-1:R2$$$V2.0)	103	3.5	97	2.85	18				
CC(C)C[C@]1(C)NC(=O)[C@H](Cc2ccc3ccccc3c2)NC(=O)[C@H](Cc2ccc(OCCN)cc2)NC(=O)[C@@H]2CCC(=O)N[C@H](CCCNC(=O)CCC[C@@H](C(=O)N[C@@H](CCN)C(=O)N[C@@H](Cc3cccnc3)C(N)=O)NC1=O)C(=O)N[C@@H]([C@@H](C)O)C(=O)N[C@@H](C(C)C)C(=O)N[C@@H](Cc1c[nH]c3ccccc13)C(=O)N[C@@H](CCC(N)=O)C(=O)N2 [Compound 6, [{d}Orn](1c)(6c)^†TVWQE(6c)[Y(2-aminoethoxy)][2-Nal][2-Me-Leu][hGlu](1c)[Dab][3-(3-Pyridyl)-Ala]-[NH2]] ([dOrn]TVWQE[AEF][2Nal][αMeL][Aad][Dab][3Pal]-NH2; lactam 1-10, N-6)	104	0.022	104						

Other lines, results leading:

% displacement (hIL-23R NIuc) (human IL-23R) [%]	IC50 (human IL-23R) [nM]	Emax [1, 2] [%]	Ki (human IL-23R) [nM]	IC50 [1, 3] [nM]	Emax (human IL-23R) [%]	IC50 ([1]; SAR tables 2-1 to 2-7, read-out: IC50 (pSTAT3)) [nM]	% displacement (hIL-23R NIuc) (human IL-23R; Table 3-1, maximal displacement of TAMRA-labelled peptide) [%]	hIL-23 (pSTAT3) antagonist % inhibition [1, 2] [%]	Structure (SMILES)
98	0.64	99							CNC(=O)[C@H](Cc1cccnc1)NC(=O)[C@H](CCN)NC(=O)[C@@H]1CCCCNC(=O)CC[C@@H]2NC(=O)CC[C@H](NC(=O)[C@H](CCC(N)=O)NC(=O)[C@H](Cc3c[nH]c4ccccc34)NC(=O)[C@H]([C@@H](C)O)NC2=O)C(=O)N[C@@H](Cc2ccc(OCCN)cc2)C(=O)N[C@@H](Cc2ccc3ccccc3c2)C(=O)N[C@@](C)(CC(C)C)C(=O)N1 [Compound 39, E(1c)(6c)^†TWQE(6c)[Y(2-aminoethoxy)][2-Nal][2-Me-Leu]K(1c)[Dab][3-(3-Pyridyl)-Ala]-[NHMe]] (ETWQE[AEF][2Nal][αMeL]K[Dab][3Pal]-NHMe; lactam 1-9, N-5)
	0.021	99			100	0.11			CC(C)C[C@]1(C)NC(=O)[C@H](Cc2ccc3ccccc3c2)NC(=O)[C@H](Cc2ccc(OCCN)cc2)NC(=O)[C@@H]2CCC(=O)N[C@@H](CCCCNC(=O)CC[C@@H](C(=O)N[C@@H](CCN)C(=O)N[C@@H](Cc3cccnc3)C(N)=O)NC1=O)C(=O)N[C@@H]([C@@H](C)O)C(=O)N[C@@H](C(C)C)C(=O)N[C@@H](Cc1c[nH]c3ccccc13)C(=O)N[C@@H](CCC(N)=O)C(=O)N2 [Compound 2, K(1c)(6c)^†TVWQE(6c)[Y(2-aminoethoxy)][2-Nal][2-Me-Leu]E(1c)[Dab][3-(3-Pyridyl)-Ala]-[NH2]] (KTVWQE[AEF][2Nal][αMeL]E[Dab][3Pal]-NH2; lactam 1-10, N-6)
104		100							CC(C)C[C@]1(C)NC(=O)[C@H](Cc2ccc3ccccc3c2)NC(=O)[C@H](Cc2ccc(OCCN)cc2)NC(=O)[C@@H]2CCC(=O)N[C@@H](CCCNC(=O)CC[C@@H](C(=O)N[C@@H](CCN)C(=O)N[C@@H](Cc3cccnc3)C(N)=O)NC1=O)CC(=O)N[C@@H]([C@@H](C)O)C(=O)N[C@@H](C(C)C)C(=O)N[C@@H](Cc1c[nH]c3ccccc13)C(=O)N[C@@H](CCC(N)=O)C(=O)N2 [Compound 12, [bLys](1c)(6c)^†TVWQE(6c)[Y(2-aminoethoxy)][2-Nal][2-Me-Leu]E(1c)[Dab][3-(3-Pyridyl)-Ala]-[NH2]] (TVWQE[AEF][2Nal][αMeL]E[Dab][3Pal]-NH2; linker N-5-9 via X7)
		99		2.9	107				CC[C@H](C)[C@@H]1NC(=O)[C@@H]2CCCCNC(=O)CC[C@@H](C(=O)N[C@@H](CCN)C(=O)N[C@@H](Cc3cccnc3)C(N)=O)NC(=O)C(C)(C)NC(=O)[C@H](Cc3ccc4ccccc4c3)NC(=O)[C@H](Cc3ccc(C)cc3)NC(=O)[C@H](CCC(=O)N2)NC(=O)[C@H](CCC(N)=O)NC(=O)[C@H](Cc2c[nH]c3ccccc23)NC(=O)[C@H](C(C)C)NC1=O [Compound 17, K(1c)(6c)^†IVWQE(6c)[F(4-Me)][2-Nal][Aib]E(1c)[Dab][3-(3-Pyridyl)-Ala]-[NH2]]
							105	98	CC(C)C[C@]1(C)NC(=O)[C@H](Cc2ccc3ccccc3c2)NC(=O)[C@H](Cc2ccc(OCCN)cc2)NC(=O)[C@@H]2CCNC(=O)CC[C@H](NC(=O)[C@H](CO)NC(=O)Cc3ccc(cc3)CNC(=O)CC[C@@H](C(=O)N[C@@H](CCN)C(N)=O)NC1=O)C(=O)N[C@@H](Cc1c[nH]c3ccccc13)C(=O)N[C@@H](CCC(=O)N1CCCC1)C(=O)N2 [Ref 146, [4-Aminomethyl-phenylacetyl](1c)*SE(2c)W[Q(pyrrolidin)][Dab](2c)[Y(2-aminoethoxy)][2-Nal][2-Me-Leu]E(1c)[Dab]-[NH2], reference compound] ([X1]SEWE(Pyrrolidide)[Dab][AEF][2Nal][αMeL]E[Dab]-NH2; lactam 3-6, N-10)
